This is an account of results in patent US20220184037A1, “PHARMACEUTICAL AGENTS TARGETING CANCER STEM CELLS” (THE JOHNS HOPKINS UNIVERSITY, priority 2020, published 2022).

Data set [1] relates to panel of miRNAs in BFTC 905 cells. In words: Expression of a panel of miRNAs. The following applies: COX2 inhibitor. The data set is classed as cell-based, human. The procedure: Total RNA from cell lines was isolated using the RNeasy Plus Mini kit (Qiagen, Valencia, USA) according to the manufacturer's protocol. Total RNA extraction from bladder tissue was performed with the QIAzol Lysis Reagent (Qiagen) followed by phenol extraction and ethanol precipitation. Total RNA was eluted in DEPC treated water and stored at −80 ° C. Total RNA extraction from urine was performed using the MirVana miRNA Isolation Kit (Ambion, Austin, USA). These total RNA were converted to cDNA using the SuperScript III First-Strand Synthesis System (Life technologies, Carlsbad, USA), which was then used as a template for Q-RT-PCR. Q-RT-PCR was performed using the Fast SYBR Green Master Mix (Thermo Fisher Scientific, Waltham, USA) on a 7900HT Fast Real-Time PCR System (Life technologies) in triplicate. Micro RNA (miRNA) extraction was performed using the MirVana miRNA Isolation Kit, and was reverse transcribed using TaqMan reverse transcription kit (Applied Biosystems, Foster City, USA) and miRNA-specific RT primers provided with TaqMan microRNA assays (Applied Biosystems). Q-RT-PCR for miRNAs was performed using the TaqMan Universal PCR Master Mix according to the manufacturer's protocol. SDS software (Applied Biosystems) was used to determine cycle threshold (Ct) values. Expression level was quantified relative to β-actin for mRNA and RNU6B for miRNA using the 2-ΔΔCt method (12).

The nature of data set [2]: Body weight of treated mice. The data set is classed as in vivo. The note with it: mice treated with inhibitors compared with control. How it is done: For therapeutic efficacy, mice were randomly assigned into experimental groups (five mice per group) when tumors reached a volume of […]. For celecoxib and/or VP treatment, celecoxib (5 mg/kg) was administered via intraperitoneal (i.p.) injection once a day (17), and VP (50 mg/kg) was administered via i.p. every other day (18). EP4 antagonist ONO-AE3-208 (10 mg/kg) was administered via i.p. once a day (19). Control was applied with same volume (10 μL per injection) of 10% dimethyl sulphoxide in 1% TWEEN 80 (Sigma-Aldrich). For GEM and CDDP (GC) treatment (i.p.), CDDP (6 mg/kg) was only applied after the first GEM (60 mg/kg) treatment on day 2, followed by three consecutive treatments of GEM on day 5, 8 and 11 (17). The next cycle was started on day 18, and the treatment was continued until tumor reached 2 cm in diameter. For erlotinib treatment, the mice were treated once a day, 6 days per week, by oral gavage with erlotinib (100 mg/kg) or control (PBS containing 0.5% methyl cellulose (Sigma-Aldrich) and 0.1% TWEEN 80) (20). Tumor size was measured at least every three days. Therapeutic efficacy was assessed using percentage change after treatment related to tumor size before treatment. […]

The test system of another data set is BFTC 905 cells. In words: MTT assay, sensitivity to erlotinib (IC50). The data set is classed as cell-based, human. The note with it: BFTC 905 cells harboring an NRAS mutation, 72 hours. The procedure: (§1) Embryonic kidney cell line 293, SV-40 immortalized normal human urothelial cell line (HUC1), and bladder cancer cell lines 5637, FIT-1376, J82, SCaBER, RT-4, T24, and UM-UC3 were obtained from American. Type Culture Collection (ATCC; Manassas, Va., USA). Mediums were purchased from Mediatech (Manassas, USA) and supplemented with 10% FBS (Hyclone, Logan, USA) under a 5% CO2 atmosphere at 95% relative humidity. HUC-1, T24, and 5637 cells were grown in F-12K, McCoy's 5A, and RPMI 1640 medium, respectively, and all other cells were grown Dulbecco's modified Eagle medium (DMEM). BFTC 905 and BFTC 909 cell lines were established from arsenic-exposed urothelial carcinoma subjects (9) and obtained from the German Collection of Microorganisms and Cell Cultures (Braunschweig, Germany). Re-authentification of cells was performed using PowerPlex 16 HS for short tandem repeats analysis at Genetic resource core facility, the Johns Hopkins University School of Medicine, Institute of Genetic Medicine, and all cell lines have been confirmed as authentic. To prepare in vitro arsenic model, we chronically exposed HUC1 cells to 1 μM arsenic trioxide, as described previously (10) and arsenic-exposed (As) cells and passage-matched arsenic un-exposed control (UE) cells were stock for each months until 12 months. […]
(§2) The cell proliferative and viability activity were measured using the 3-(4,5-dimethyl thiazol-2-yl)-2,5-diphenyltetrazolium bromide (MTT) Proliferation Assay Kit (ATCC; Manassas, Va., USA) according to the manufacturer's protocol. […] Spectrophotometric readings (570 nm-650 nm) were obtained on a Spectra Max 250 96-well plate reader (Molecular devices, Sunnyvale, USA). […] Cell viability was expressed as the ratio of absorbance values of the treated cells related to the untreated control cells considered as 1.0. The half maximal (50%) inhibitory concentration (IC50) value of drug was calculated by treatment with the various concentration for 72 hours using MTT assay. […]

Data set [3] has as its system arsenic exposed (As)-HUC1 cells. As to the kind of experiment: MTT assay, sensitivity to erlotinib (IC50). Format: cell-based, human. The note with it: 72 hours (FIG. 1H). How it is done:
as §1, §2
A general note: Tetrazolium assays rely on reduction of a dye to a coloured formazan, in cell work by metabolically active cells.

Structures are written as SMILES.

For the molecule `Cc1ccc(-c2cc(C(F)(F)F)nn2-c2ccc(S(N)(=O)=O)cc2)cc1` [celecoxib, Celecoxib], in data set [1], the “expression of several miRNAs” value is “induced expression”. The body weight loss result in data set [2] is “did not observe body weight loss”.

In the case of `C#Cc1cccc(Nc2ncnc3cc(OCCOC)c(OCCOC)cc23)c1` [erlotinib, Erlotinib], the results for the “sensitivity to the EGFR inhibitor erlotinib” value (with BFTC 905 cells; in data set [3]) were “resistance” and “sensitive”, respectively.
